Measurements: patent US10662204B2 (PFIZER INC., priority 2018, dated 2020)

Assays:
[1] = target: T1, GDP-loaded KRAS (1-169) G12C, C51S, C80L, C118S (Homo sapiens, UniProt P01116, C118S/C51S/C80L/G12C); assay: Mass Spectrometry Reactivity Assay (MSRA): covalent adduct of compound and KRAS G12C, Percent Modification; format: binding; conditions: for MSRA (% modification) 5.0 μM 0.25 hr / MSRA (% modification) 5.0 μM 0.017 hr: 5.0 μM compound; for MSRA (% modification) 10 μM 0.25 hr / MSRA (% modification) 10 μM 0.50 hr: 10 μM compound
T1 construct: GDP-loaded KRAS (1-169) G12C, C51S, C80L, C118S
Summary of the method: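 GDP-loaded KRAS(1-169) G12C/C51S/C80L/C118S at 5 μM in 25 mM Hepes pH 7.5, 200 mM NaCl, 5% glycerol incubated at RT with compound (typically 5 or 10 μM final, 1% DMSO). Quenched in formic acid at 1-60 min; intact-protein LC-TOF MS gives % modification = modified/(modified+unmodified).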

KRAS G12C = KRAS G12C (Homo sapiens, UniProt P01116, G12C); assay: Cell Activity Assay: accumulation of GDP-bound KRAS G12C in MIAPaCa-2 cells (Raf-1 RBD capture, MSD readout); format: cell-based; set-up: endogenous in cells; host or cells: MIAPaCa-2; conditions: 6 hours, assay limit is 30.00
Summary of the method: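 MIAPaCa-2 cells exposed 6 h at 37 °C to 3-fold compound dilutions (0.3% DMSO final), then lysed. Active GTP-KRAS captured on Raf-1 RBD-coated plates, detected with anti-pan-Ras and SULFO-TAG secondary by MSD electrochemiluminescence. Signal normalized to DMSO and maximum inhibition; IC50 from 4-parameter fit.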

SMILES	MSRA (% modification) 5.0 μM 0.25 hr [1] [%]	MSRA (% modification) 10 μM 0.25 hr [1] [%]	MSRA (% modification) 10 μM 0.50 hr [1] [%]	IC50 (KRAS G12C) [µM]	MSRA (% modification) 5.0 μM 0.017 hr [1] [%]
C=CC(=O)N1CCN(c2nc(OCc3nncn3C)nc3c(Oc4c(C)ccc5[nH]ncc45)cccc23)CC1 [Example 07F, 1-(4-{8-[(5-methyl-1H-indazol-4-yl)oxy]-2-[(4-methyl-4H-1,2,4-triazol-3-yl)methoxy]quinazolin-4-yl}piperazin-1-yl)prop-2-en-1-one]	22	74	75	21.2	
C=CC(=O)N1CCN(c2ncnc3c(Oc4c(Cl)c(C)cc5[nH]ncc45)nc(C#N)cc23)CC1 [Example 19A, 4-(4-acryloylpiperazin-1-yl)-8-[(5-chloro-6-methyl-1H-indazol-4-yl)oxy]pyrido[3,4-d]pyrimidine-6-carbonitrile]		21	33	28	
C=CC(=O)N1CCN(c2nc(OCc3ccccn3)nc3c(Oc4c(Cl)c(F)cc5[nH]ncc45)nccc23)CC1 [Example 08H, 1-(4-{8-[(5-chloro-6-fluoro-1H-indazol-4-yl)oxy]-2-(pyridin-2-ylmethoxy)pyrido[3,4-d]pyrimidin-4-yl}piperazin-1-yl)prop-2-en-1-one]	36			0.491	
C=CC(=O)N1CCN(c2nc(O[C@H]3CN(C)C[C@@H]3OC)nc3c(Oc4c(Cl)c(F)cc5[nH]ncc45)nccc23)CC1 [Example 11I, 1-[4-(8-[(5-chloro-6-fluoro-1H-indazol-4-yl)oxy]-2-{[(3S,4S)-4-methoxy-1-methyl-pyrrolidin-3-yl]oxy}pyrido [3,4-d]pyrimidin-4-yl)piperazin-1-yl]prop-2-en-1-one]	32			0.321	
C=CC(=O)N1CCN(c2nc(OCC3CCCCN3C)nc3c(Oc4c(C)ccc5[nH]ncc45)cccc23)CC1 (centres unmarked) [Example 21F, 1-(4-{8-[(5-methyl-1H-indazol-4-yl)oxy]-2-[(1-methylpiperidin-2-yl)methoxy]quinazolin-4-yl}piperazin-1-yl)prop-2-en-1-one]	61			0.283	
C=CC(=O)N1CCN(c2nc(O[C@@H]3CN(C)C[C@H]3OC)nc3c(Oc4c(Cl)c(F)cc5[nH]ncc45)nccc23)[C@@H](C)C1 [Example 33I, 1-[(3S)-4-(8-[(5-chloro-6-fluoro-1H-indazol-4-yl)oxy]-2-{[(3R,4R)-4-methoxy-1-methyl-pyrrolidin-3-yl]oxy}pyrido [3,4-d]pyrimidin-4-yl)-3-methyl-piperazin-1-yl]prop-2-en-1-one]				0.039	74
C=CC(=O)N1CCN(c2nc(O[C@@H]3CN(C)C[C@H]3OC)nc3c(Oc4c(C)c(Cl)cc5[nH]ncc45)nccc23)CC1 [Example 40I, 1-[4-(8-[(6-chloro-5-methyl-1H-indazol-4-yl)oxy]-2-{[(3R,4R)-4-methoxy-1-methyl-pyrrolidin-3-yl]oxy}pyrido [3,4-d]pyrimidin-4-yl)piperazin-1-yl]prop-2-en-1-one]				0.02	68
C=CC(=O)N1CCN(c2nc(OC[C@H]3CCCN3C)nc3c(Oc4c(Cl)c(F)cc5[nH]ncc45)nccc23)CC1 [Example 17E, 1-[4-(8-[(5-chloro-6-fluoro-1H-indazol-4-yl)oxy]-2-{[(2R)-1-methylpyrrolidin-2-yl]methoxy}pyrido[3,4-d]pyrimidin-4-yl)piperazin-1-yl]prop-2-en-1-one]	76	80	83	0.197	
C=CC(=O)N1CCN(c2nc(OC[C@@H]3CCCN3C)nc3c(Oc4c(C)c(Cl)cc5[nH]ncc45)cccc23)CC1 [Example 22E, 1-[4-(8-[(6-chloro-5-methyl-1H-indazol-4-yl)oxy]-2-{[(2S)-1-methylpyrrolidin-2-yl]methoxy}quinazolin-4-yl)piperazin-1-yl]prop-2-en-1-one]	83	81	83	0.056	
C=CC(=O)N1CCN(c2nc(OC[C@@H]3CCCN3C)nc3c(Oc4c(C)ccc5[nH]ncc45)nc(Cl)cc23)CC1 [Example 03G, 1-[4-(6-chloro-8-[(5-methyl-1H-indazol-4-yl)oxy]-2-{[(2S)-1-methylpyrrolidin-2-yl]methoxy}pyrido[3,4-d]pyrimidin-4-yl)piperazin-1-yl]prop-2-en-1-one]		72		0.155	
C=CC(=O)N1CCN(c2nc(O[C@@H]3CN(C)C[C@H]3O)nc3c(Oc4c(Cl)c(F)cc5[nH]ncc45)nc(Cl)cc23)CC1 [Example 37G, 1-[4-(6-chloro-8-[(5-chloro-6-fluoro-1H-indazol-4-yl)oxy]-2-{[(3R,4R)-4-hydroxy-1-methylpyrrolidin-3-yl]oxy}pyrido[3,4-d]pyrimidin-4-yl)piperazin-1-yl]prop-2-en-1-one]				0.338	37
C=CC(=O)N1CCN(c2nc(OCC3(F)CCN(C)CC3)nc3c(Oc4c(Cl)c(F)cc5[nH]ncc45)nccc23)CC1 [Example 12I, 1-(4-{8-[(5-chloro-6-fluoro-1H-indazol-4-yl)oxy]-2-[(4-fluoro-1-methyl-piperidin-4-yl)methoxy]pyrido [3,4-d]pyrimidin-4-yl}piperazin-1-yl)prop-2-en-1-one]	78			0.12	
C=CC(=O)N1CCN(c2nc(O[C@@H]3CN(C)C[C@H]3C(F)(F)F)nc3c(Oc4c(Cl)c(F)cc5[nH]ncc45)nccc23)CC1 [Example 57I, 1-[4-(8-[(5-chloro-6-fluoro-1H-indazol-4-yl)oxy]-2-{[(3S,4R)-1-methyl-4-(trifluoro-methyl)pyrrolidin-3-yl]oxy}pyrido [3,4-d]pyrimidin-4-yl)piperazin-1-yl]prop-2-en-1-one]				0.024	22
C=CC(=O)N1CCN(c2nc(O[C@@H]3CN(C)C[C@@H]3C)nc3c(Oc4c(Cl)c(F)cc5[nH]ncc45)nc(Cl)cc23)CC1 (racemic) [Example 31G, rac-1-[4-(6-chloro-8-[(5-chloro-6-fluoro-1H-indazol-4-yl)oxy]-2-{[(3R,4R)-1,4-dimethylpyrrolidin-3-yl]oxy}pyrido[3,4-d]pyrimidin-4-yl)piperazin-1-yl]prop-2-en-1-one]				0.135	26
C=CC(=O)N1CCN(c2ncnc3c(Oc4c(C)ccc5[nH]ncc45)cc(Cl)cc23)CC1 [Example 12C, 1-(4-{6-chloro-8-[(5-methyl-1H-indazol-4-yl)oxy]quinazolin-4-yl}piperazin-1-yl)prop-2-en-1-one]			34	3.91	
C=CC(=O)N1CCN(c2nc(NCc3ncc[nH]3)nc3c(Oc4c(C)ccc5[nH]ncc45)cccc23)CC1 [Example 20F, 1-(4-{2-[(1H-imidazol-2-ylmethyl)amino]-8-[(5-methyl-1H-indazol-4-yl)oxy]quinazolin-4-yl}piperazin-1-yl)prop-2-en-1-one]		17		2.99	
C=CC(=O)N1CCN(c2ncnc3c(Oc4c(Cl)c(C)cc5[nH]ncc45)nc(C)cc23)CC1 [Example 05C, 1-(4-{8-[(5-chloro-6-methyl-1H-indazol-4-yl)oxy]-6-methylpyrido[3,4-d]pyrimidin-4-yl}piperazin-1-yl)prop-2-en-1-one]			61	1.29	
C=CC(=O)N1CCN(c2nc(O[C@H]3Cc4nccn4C3)nc3c(Oc4c(C)ccc5[nH]ncc45)cccc23)CC1 [Example 08F, 1-(4-{2-[(6S)-6,7-dihydro-5H-pyrrolo[1,2-a]imidazol-6-yloxy]-8-[(5-methyl-1H-indazol-4-yl)oxy]quinazolin-4-yl}piperazin-1-yl)prop-2-en-1-one]		58	72	1.6	
C=CC(=O)N1CCN(c2nc(O[C@@H]3CN(C)C[C@H]3C)nc3c(Oc4c(Cl)c(F)cc5[nH]ncc45)nc(Cl)cc23)CC1 (racemic) [Example 32G, rac-1-[4-(6-chloro-8-[(5-chloro-6-fluoro-1H-indazol-4-yl)oxy]-2-{[(3S,4R)-1,4-dimethylpyrrolidin-3-yl]oxy}pyrido[3,4-d]pyrimidin-4-yl)piperazin-1-yl]prop-2-en-1-one]				0.016	44
C=CC(=O)N1CCN(c2ncnc3c(Oc4c(Cl)c(F)cc5[nH]ncc45)nc(Cl)cc23)C[C@@H]1C [Example 36A, 1-[(2S)-4-{6-chloro-8-[(5-chloro-6-fluoro-1H-indazol-4-yl)oxy]pyrido[3,4-d]pyrimidin-4-yl}-2-methylpiperazin-1-yl]prop-2-en-1-one]		31		4.7	
C=CC(=O)N1CCN(c2nc(N3CC(N(C)C)C3)nc3c(Oc4c(C)ccc5[nH]ncc45)nc(C)cc23)[C@@H](C)C1 [Example 05B, 1-[(3S)-4-{2-[3-(dimethylamino)azetidin-1-yl]-6-methyl-8-[(5-methyl-1H-indazol-4-yl)oxy]pyrido[3,4-d]pyrimidin-4-yl}-3-methylpiperazin-1-yl]prop-2-en-1-one]			15	4.03	
